Measurements reported in patent publication US20220323406A1, “METHODS AND COMPOSITIONS FOR DIFFERENTIATING STEM CELLS” (Massachusetts Institute of Technology, priority 2019, published 2022).
Where a name gives a salt, the structure may show the parent alone.

How the values were obtained:
ENR+CD organoids = test: Primary screen: ATP (CellTiter-Glo 3D, CTG) cell number/viability, 2.5-D 384-well ENR+CD organoids; conditions: primary screen;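 further: compounds given at plating and again on day 3 over a 6-day differentiation from ENR+CV stem-cell-enriched precursors, ATP measured on day 6, plate median as control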
[1] = test system: ENR+CD organoids (ISC to Paneth cell differentiation); test: Primary screen: CCh-stimulated lysozyme secretion LYZ.S, 2.5-D 384-well ENR+CD organoid differentiation; assay type: cell-based, mouse; conditions: primary screen
Description: (§1) High-throughput screening.

[2] = test system: ENR+CD organoids (ISC to Paneth cell differentiation); test: Primary screen: basal (non-stimulated) lysozyme secretion LYZ.NS, 2.5-D 384-well ENR+CD organoid differentiation; assay type: cell-based, mouse
Description: as §1

[3] = dose 0.08 uM, FC vs plate median
[4] = dose 0.40 uM, FC vs plate median
[5] = dose 2.00 uM, FC vs plate median
[6] = dose 10.00 uM, FC vs plate median
[7] = 1st dose row of the treatment (0.08 uM by row order; dose not reprinted)
[8] = 2nd dose row of the treatment (0.40 uM by row order; dose not reprinted)
[9] = 3rd dose row of the treatment (2.00 uM by row order; dose not reprinted)
[10] = 4th dose row of the treatment (10.00 uM by row order; dose not reprinted)

Compound	Z.LYZ.NS (standard z score) ([2]; primary screen, dose 0.08 uM)	Z.LYZ.NS (standard z score) ([2]; primary screen, dose 0.40 uM)	Z.LYZ.NS (standard z score) ([2]; primary screen, dose 2.00 uM)	Z.LYZ.NS (standard z score) ([2]; primary screen, dose 10.00 uM)	Dose.FC.CTG (ENR+CD organoids; dose 0.08 uM)	Dose.FC.CTG (ENR+CD organoids; dose 0.40 uM)	Dose.FC.CTG (ENR+CD organoids; dose 2.00 uM)	Dose.FC.CTG (ENR+CD organoids; dose 10.00 uM)	Dose.FC.LYZ.S ([1]; dose 0.08 uM)	Dose.FC.LYZ.S ([1]; dose 0.40 uM)	Dose.FC.LYZ.S ([1]; dose 2.00 uM)	Dose.FC.LYZ.S ([1]; dose 10.00 uM)	Dose.FC.LYZ.NS ([2]; primary screen, dose 0.08 uM)	Dose.FC.LYZ.NS ([2]; primary screen, dose 0.40 uM)	Dose.FC.LYZ.NS ([2]; primary screen, dose 2.00 uM)	Dose.FC.LYZ.NS ([2]; primary screen, dose 10.00 uM)	Z.CTG (standard z score) (ENR+CD organoids; dose 0.08 uM)	Z.CTG (standard z score) (ENR+CD organoids; dose 0.40 uM)	Z.CTG (standard z score) (ENR+CD organoids; dose 2.00 uM)	Z.CTG (standard z score) (ENR+CD organoids; dose 10.00 uM)	further results
COc1ccc2c(c1)C(=O)N(CCc1ccc(S(=O)(=O)NC(=O)NC3CCCCC3)cc1)C(=O)C2(C)C [Gliquidone]	0.893	0.322	0.747	0.268																	Dose.FC.CTG (log2 fold change) (ENR+CD organoids; dose 0.08 uM): 0.124; Dose.FC.CTG (log2 fold change) (ENR+CD organoids; dose 0.40 uM): 0.103; Dose.FC.CTG (log2 fold change) (ENR+CD organoids; dose 2.00 uM): 0.246; Dose.FC.CTG (log2 fold change) (ENR+CD organoids; dose 10.00 uM): 0.134; Dose.FC.LYZ.S (log2 fold change) ([1]; dose 0.08 uM): 0.101; Dose.FC.LYZ.S (log2 fold change) ([1]; dose 0.40 uM): 0.070; Dose.FC.LYZ.S (log2 fold change) ([1]; dose 2.00 uM): 0.006; Dose.FC.LYZ.S (log2 fold change) ([1]; dose 10.00 uM): −0.020; Dose.FC.LYZ.NS (log2 fold change) ([2]; primary screen, dose 0.08 uM): 0.103; Dose.FC.LYZ.NS (log2 fold change) ([2]; primary screen, dose 0.40 uM): 0.037; Dose.FC.LYZ.NS (log2 fold change) ([2]; primary screen, dose 2.00 uM): 0.086; Dose.FC.LYZ.NS (log2 fold change) ([2]; primary screen, dose 10.00 uM): 0.031
COCCCC/C(=N\OCCN)c1ccc(C(F)(F)F)cc1 [Fluvoxamine maleate]					0.115 log2 fold change	0.254 log2 fold change	0.211 log2 fold change	0.138 log2 fold change	0.114 log2 fold change	0.172 log2 fold change	0.108 log2 fold change	0.012 log2 fold change	0.074 log2 fold change	0.087 log2 fold change	0.089 log2 fold change	−0.027 log2 fold change					Z.LYZ.NS ([2]; primary screen, standard z score, dose 0.08 uM): 0.642; Z.LYZ.NS ([2]; primary screen, standard z score, dose 0.40 uM): 0.756; Z.LYZ.NS ([2]; primary screen, standard z score, dose 2.00 uM): 0.778; Z.LYZ.NS ([2]; primary screen, standard z score, dose 10.00 uM): −0.235
CC(/C=C/C(=O)NO)=C\[C@@H](C)C(=O)c1ccc(N(C)C)cc1 [Trichostatin A (TSA)]	−0.554	−1.697	−1.334	−1.298	0.191 log2 fold change	−0.801 log2 fold change	−0.904 log2 fold change	−0.826 log2 fold change	−0.124 log2 fold change	−0.254 log2 fold change	−0.210 log2 fold change	−0.202 log2 fold change	−0.064 log2 fold change	−0.195 log2 fold change	−0.153 log2 fold change	−0.149 log2 fold change	0.457	−1.913	−2.159	−1.974	
CN1C2CCCC1CC(NC(=O)c1nn(C)c3ccccc13)C2 (stereo not shown) [Granisetron HCl]	0.531	−0.021	0.155	−0.378																	Dose.FC.CTG (log2 fold change) (ENR+CD organoids; dose 0.08 uM): −0.214; Dose.FC.CTG (log2 fold change) (ENR+CD organoids; dose 0.40 uM): −0.086; Dose.FC.CTG (log2 fold change) (ENR+CD organoids; dose 2.00 uM): −0.178; Dose.FC.CTG (log2 fold change) (ENR+CD organoids; dose 10.00 uM): −0.297; Dose.FC.LYZ.S (log2 fold change) ([1]; dose 0.08 uM): 0.015; Dose.FC.LYZ.S (log2 fold change) ([1]; dose 0.40 uM): 0.131; Dose.FC.LYZ.S (log2 fold change) ([1]; dose 2.00 uM): −0.007; Dose.FC.LYZ.S (log2 fold change) ([1]; dose 10.00 uM): −0.103; Dose.FC.LYZ.NS (log2 fold change) ([2]; primary screen, dose 0.08 uM): 0.061; Dose.FC.LYZ.NS (log2 fold change) ([2]; primary screen, dose 0.40 uM): −0.002; Dose.FC.LYZ.NS (log2 fold change) ([2]; primary screen, dose 2.00 uM): 0.018; Dose.FC.LYZ.NS (log2 fold change) ([2]; primary screen, dose 10.00 uM): −0.043
O=c1cc(-c2ccc(O)cc2)oc2cc(O)cc(O)c12 [Apigenin]	1.147	1.131	2.021	0.847	0.246 log2 fold change	0.214 log2 fold change	0.315 log2 fold change	0.026 log2 fold change	0.192 log2 fold change	0.165 log2 fold change	0.196 log2 fold change	0.098 log2 fold change	0.132 log2 fold change	0.130 log2 fold change	0.232 log2 fold change	0.097 log2 fold change					
Clc1ccc(N/N=C(\c2ccccc2)c2ccccn2)nc1 [JIB-04]	1.549	0.264	0.048	−1.330													0.607	0.258	0.219	−0.433	Dose.FC.CTG (log2 fold change) (ENR+CD organoids; dose 0.08 uM): 0.254; Dose.FC.CTG (log2 fold change) (ENR+CD organoids; dose 0.40 uM): 0.108; Dose.FC.CTG (log2 fold change) (ENR+CD organoids; dose 2.00 uM): 0.092; Dose.FC.CTG (log2 fold change) (ENR+CD organoids; dose 10.00 uM): −0.181; Dose.FC.LYZ.S (log2 fold change) ([1]; dose 0.08 uM): 0.203; Dose.FC.LYZ.S (log2 fold change) ([1]; dose 0.40 uM): 0.084; Dose.FC.LYZ.S (log2 fold change) ([1]; dose 2.00 uM): −0.056; Dose.FC.LYZ.S (log2 fold change) ([1]; dose 10.00 uM): −0.085; Dose.FC.LYZ.NS (log2 fold change) ([2]; primary screen, dose 0.08 uM): 0.178; Dose.FC.LYZ.NS (log2 fold change) ([2]; primary screen, dose 0.40 uM): 0.030; Dose.FC.LYZ.NS (log2 fold change) ([2]; primary screen, dose 2.00 uM): 0.006; Dose.FC.LYZ.NS (log2 fold change) ([2]; primary screen, dose 10.00 uM): −0.153
CN(C)C(=O)c1ccc(S(=O)(=O)c2ccc(NC(=O)[C@@](C)(O)C(F)(F)F)c(Cl)c2)cc1 [AZD7545]	0.758	−0.245	−0.155	−0.441	−0.334 log2 fold change	−0.158 log2 fold change	−0.255 log2 fold change	−0.350 log2 fold change	0.111 log2 fold change	−0.017 log2 fold change	−0.148 log2 fold change	−0.104 log2 fold change	0.087 log2 fold change	−0.028 log2 fold change	−0.018 log2 fold change	−0.051 log2 fold change	−0.798	−0.378	−0.608	−0.836	
OC(CNCC(O)C1CCc2cc(F)ccc2O1)C1CCc2cc(F)ccc2O1 (stereo not shown) [Nebivolol]																					Dose.FC.CTG (ENR+CD organoids; [3]): 0.388 log2 fold change; Dose.FC.CTG (ENR+CD organoids; [4]): 0.220 log2 fold change; Dose.FC.CTG (ENR+CD organoids; [5]): 0.312 log2 fold change; Dose.FC.CTG (ENR+CD organoids; [6]): 0.209 log2 fold change; Dose.FC.LYZ.S [1, 3]: 0.194 log2 fold change; Dose.FC.LYZ.S [1, 4]: 0.282 log2 fold change; Dose.FC.LYZ.S [1, 5]: 0.069 log2 fold change; Dose.FC.LYZ.S [1, 6]: 0.105 log2 fold change; Z.LYZ.NS ([2]; primary screen, dose 0.08 uM, standard z score): 1.525; Z.LYZ.NS ([2]; primary screen, dose 0.40 uM, standard z score): 2.776; Z.LYZ.NS ([2]; primary screen, dose 2.00 uM, standard z score): 0.960; Z.LYZ.NS ([2]; primary screen, dose 10.00 uM, standard z score): 0.836; Dose.FC.LYZ.NS ([2]; primary screen; dose 0.08 uM; FC vs plate median): 0.175 log2 fold change; Dose.FC.LYZ.NS ([2]; primary screen; dose 0.40 uM; FC vs plate median): 0.319 log2 fold change; Dose.FC.LYZ.NS ([2]; primary screen; dose 2.00 uM; FC vs plate median): 0.110 log2 fold change; Dose.FC.LYZ.NS ([2]; primary screen; dose 10.00 uM; FC vs plate median): 0.096 log2 fold change
O=C(O)c1ccc(N2C(=O)/C(=C\c3ccc(-c4ccc([N+](=O)[O-])cc4)o3)C=C2c2ccccc2)cc1 [4E1RCat]	0.874	−0.154	1.316	0.062	0.246 log2 fold change	0.362 log2 fold change	0.006 log2 fold change	−0.011 log2 fold change	0.107 log2 fold change	0.038 log2 fold change	0.049 log2 fold change	0.082 log2 fold change	0.100 log2 fold change	−0.018 log2 fold change	0.151 log2 fold change	0.007 log2 fold change	0.587	0.864	0.015	−0.026	SSMD.CTG.Rep (strictly standardized mean difference) (ENR+CD organoids; [7]): 0.790; SSMD.CTG.Rep (strictly standardized mean difference) (ENR+CD organoids; [8]): 0.559; SSMD.CTG.Rep (strictly standardized mean difference) (ENR+CD organoids; [9]): 0.022; SSMD.CTG.Rep (strictly standardized mean difference) (ENR+CD organoids; [10]): −0.026; SSMD.LYZ.S_Rep (strictly standardized mean difference) [1, 7]: 0.712; Z.LYZ.S (standard z score) [1, 7]: 0.690; SSMD.LYZ.S_Rep (strictly standardized mean difference) [1, 8]: 0.185; Z.LYZ.S (standard z score) [1, 8]: 0.247; SSMD.LYZ.S_Rep (strictly standardized mean difference) [1, 9]: 0.311; Z.LYZ.S (standard z score) [1, 9]: 0.316; SSMD.LYZ.S_Rep (strictly standardized mean difference) [1, 10]: 0.321; Z.LYZ.S (standard z score) [1, 10]: 0.530; SSMD.LYZ.NS_Rep (strictly standardized mean difference) ([2]; primary screen, 1st dose row of the treatment (0.08 uM by row order; dose not reprinted)): 0.883; SSMD.LYZ.NS_Rep (strictly standardized mean difference) ([2]; primary screen, 2nd dose row of the treatment (0.40 uM by row order; dose not reprinted)): −0.121; SSMD.LYZ.NS_Rep (strictly standardized mean difference) ([2]; primary screen, 3rd dose row of the treatment (2.00 uM by row order; dose not reprinted)): 0.437; SSMD.LYZ.NS_Rep (strictly standardized mean difference) ([2]; primary screen, 4th dose row of the treatment (10.00 uM by row order; dose not reprinted)): 0.053
I-BET151 (GSK1210151A)	−1.010	−2.159	−2.601	−2.473													−0.039	−0.415	−1.200	−2.233	Dose.FC.CTG (log2 fold change) (ENR+CD organoids; dose 0.08 uM): −0.016; Dose.FC.CTG (log2 fold change) (ENR+CD organoids; dose 0.40 uM): −0.174; Dose.FC.CTG (log2 fold change) (ENR+CD organoids; dose 2.00 uM): −0.502; Dose.FC.CTG (log2 fold change) (ENR+CD organoids; dose 10.00 uM): −0.935; Dose.FC.LYZ.S (log2 fold change) ([1]; dose 0.08 uM): −0.242; Dose.FC.LYZ.S (log2 fold change) ([1]; dose 0.40 uM): −0.344; Dose.FC.LYZ.S (log2 fold change) ([1]; dose 2.00 uM): −0.416; Dose.FC.LYZ.S (log2 fold change) ([1]; dose 10.00 uM): −0.408; Dose.FC.LYZ.NS (log2 fold change) ([2]; primary screen, dose 0.08 uM): −0.116; Dose.FC.LYZ.NS (log2 fold change) ([2]; primary screen, dose 0.40 uM): −0.248; Dose.FC.LYZ.NS (log2 fold change) ([2]; primary screen, dose 2.00 uM): −0.299; Dose.FC.LYZ.NS (log2 fold change) ([2]; primary screen, dose 10.00 uM): −0.284
